Results reported in publication PMC3845832 (Clinical cancer research : an official journal of the …, 2013).
Where two headings read alike, the source gives them in different places. One block for each molecule: values may come before it.

What was measured:
UGT1A1 or UGT1A4 = conditions: in vitro; cited from earlier work
UGT1A9 = conditions: in vitro; cited from earlier work
CLL patients [1] = conditions: cited from earlier work
[2] = Dinaciclib clearance pathways; conditions: unpublished data
CLL patients [3] = experiment: Tumor lysis syndrome; type: in vivo, human
refractory CLL patients = conditions: pharmacokinetically guided dosing, cited from earlier work
CLL patients [4] = conditions: human, in vivo
clinical = conditions: human, in vivo
CLL patients [5] = experiment: Population PK-PD logistic regression model of TLS probability in Cycle 1; conditions: linear function, day 1 or 8; p<0.01 for significance

Molecule: CN1CCC(c2c(O)cc(O[C@@H]3O[C@H](C(=O)O)[C@@H](O)[C@H](O)[C@H]3O)c3c(=O)cc(-c4ccccc4Cl)oc23)C(O)C1 (stereo partly drawn) [Flavo-5-G, 5-O-β-glucopyranuronosyl-flavopiridol]
Share of glucuronidation product (UGT1A1 or UGT1A4): minor glucuronidation product

Molecule: CN1CC[C@H](c2c(O[C@@H]3O[C@H](C(=O)O)[C@@H](O)[C@H](O)[C@H]3O)cc(O)c3c(=O)cc(-c4ccccc4Cl)oc23)[C@H](O)C1 [Flavo-7-G, 7-O-β-glucopyranuronosyl-flavopiridol]
Share of glucuronidation product (UGT1A9): 98.5%

Role of glucuronidation in clearance [2]: clearly important
Molecule: CCc1cnn2c(NCc3ccc[n+]([O-])c3)cc(N3CCCC[C@H]3CCO)nc12 [dinaciclib]
TLS in treated CLL patients (CLL patients [1]): observed

Patients who had TLS in the first cycle (CLL patients [3]; 111 patients of phase I and II studies): 43%
Number of patients having TLS (CLL patients [3]; Day 1, Cycle 1): 25
Exposure (Cmax or AUC) as predictor of TLS in the model (CLL patients [4]): did not improve the model
Lower CL in females compared to males (clinical; both): 12.3%
Vd (clinical): 75.8 L
clearance (clinical; iv): 568 mL/min
Molecule: CN1CC[C@H](c2c(O)cc(O)c3c(=O)cc(-c4ccccc4Cl)oc23)[C@H](O)C1 [flavopiridol]
Patients in whom TLS (dose-limiting toxicity) was observed (CLL patients [1]; two trials, pharmacokinetically guided dosing regimen): 53 out of 116
Patients achieving objective responses (refractory CLL patients; phase I trial): 40%
Patients achieving objective responses (refractory CLL patients; phase II trial): 53%

Molecule: flavopiridol glucuronide [flavo-G]
Exposure (Cmax or AUC) as predictor of TLS in the model (CLL patients [5]): significant decrease in OFV
AUC, median value (clinical): 13600 ng·h/mL
AUC, range (clinical): 3210 to 141000 ng·h/mL
